From publication PMC10548421, “Anticancer Potential of Diruthenium Complexes with Bridging Hydrocarbyl Ligands from Bioactive Alkynols” (Inorganic Chemistry, 2023) come the findings set out here.

Read-outs that look alike come from different tables or passages of the source.

The subject of series [1] is A2780R cisplatin-resistant human ovarian carcinoma cell line. Put plainly: MTT in vitro cytotoxicity, A2780R. The series is classed as cell-based. As to conditions: incubation 24 h, mean ± SD. As to the method:
(§1) The cytotoxicity assessment was conducted on various human cancer cell lines, including A2780 ovarian carcinoma, A2780R cisplatin-resistant ovarian carcinoma, MCF-7 breast, HOS osteosarcoma, A549 epithelial lung, PANC-1 pancreatic, Caco-2 colorectal, PC-3 prostate adenocarcinoma, and HeLa cervical cell lines. Additionally, the assessment extended to a normal human fetal fibroblast cell line (MRC-5). Cells were obtained from ATCC collection and cultivated according to the producer’s instructions. Stock solutions of the compounds were prepared in DMF immediately before application, and diluted with H2O to achieve the final concentration of 0.1% v/v DMF.[99] The culture media were enriched with 10% fetal calf serum. Subsequently, the cells were exposed to the tested compounds, vehicle (0.1% v/v DMF) and Triton X-100 (1% v/v), during incubation. The conventional MTT assay was carried out following different incubation periods (Tables 5-6). The absorbance was measured at 570 nm by using a spectrophotometer (Infinite M200, Schoeller Instruments, Prague, Czech Republic). The obtained data are presented as the percentage of cell viability with 100% representing negative control treatment (0.1% v/v DMF) and 0% representing the positive control (Triton X-100). The half-maximal inhibitory concentrations (IC50) were determined from dose–response curves using GraphPad Prism 6 software (GraphPad Software, San Diego, USA).

The nature of series [2]: Stability in DMEM/CH3OH solution (UV–vis). The series is classed as physicochemical. As to conditions: ca. 5:1 v/v. As to the method:
[…] The percentage of remaining complex in the solution was calculated by considering the change in absorbance at the characteristic wavelength. The identical procedure was employed to evaluate stability in MeOH and DMEM (about 1:5 v/v) solutions. DMEM stands for the cell culture medium (containing 1000 mg/L glucose and L-glutamine, excluding sodium bicarbonate and phenol red; reference D2902-Merck).

Series [3] concerns A549 human lung adenocarcinoma cell line. Put plainly: MTT in vitro cytotoxicity, A549. As to conditions: incubation 24 h, mean ± SD. The series is classed as cell-based. The protocol:
as §1

Series [4] concerns A2780 human ovarian carcinoma cell line. Put plainly: MTT in vitro cytotoxicity, A2780. The series is classed as cell-based. The protocol: as §1
For series [5], the system named is PANC-1 human pancreatic carcinoma cell line. Put plainly: MTT in vitro cytotoxicity, PANC-1. In kind it is cell-based. As to conditions: incubation 24 h, mean ± SD. As to the method: as §1
Series [6] relates to A2780 cells. Put plainly: Autophagy analysis (CYTO-ID). As to conditions: A2780, complexes 4 μM, cisplatin 15 μM, 24 h. In kind it is cell-based, human. The protocol: The A2780 ovarian carcinoma cell line was received from Merck (reference 93112519–1VL) and cultured at 37 °C in an environment with 5% CO2. The cultivation was carried out in complete cell culture medium (RPMI-1640 medium, Merck), which was supplemented with 10% fetal bovine serum (FBS, Merck), 1% L-glutamine (Merck) and 1% penicillin–streptomycin–neomycin (PSN, Merck). For the flow cytometry experiments, three independent duplicates were analyzed using a BD FACSVerse flow cytometer (Becton Dickinson, USA). At least 5 × 10^3 events were recorded for each sample. The same procedure was replicated for the experiments described below. Solutions of the complexes were formulated using the stock solutions (Section 5.1).
The potential induction of autophagy by 3a and 3b in A2780 cells was studied with the kit CYTO-ID Autophagy Detection 2.0 (from Enzo Life Sciences, USA), following the protocol provided by the manufacturer. […] The supernatant was collected, cells were washed with warm PBS, detached using 0.25% trypsin-EDTA (Gibco) and resuspended in a cell culture medium. Diluted CYTO-ID Green stain solution (according to the protocol) was used to stain the samples. Following incubation for 30 min in a light-protected environment, the samples were washed with PBS (phosphate-buffered saline). Subsequently, a flow cytometry experiment was conducted. A mixture of chloroquine (10 μM) and rapamycin (0.5 μM) was used as positive control.

Series [7] can be described thus: Octanol/water partition coefficient, shake-flask with UV–vis. The series is classed as physicochemical. As to conditions: 21 °C. As to the method: Partition coefficients (Pow), defined by the formula Pow = corg/caq, wherein corg and caq denote the molar concentrations of the specific compound in octanol and aqueous phases, respectively, were obtained using the shake-flask method with UV–vis measurements, following a previously described procedure (Table 3).[98] All the operations were carried out at 21 ± 1 °C. The wavelength corresponding to the maximum absorption of each compound within the range 350–430 nm was employed for quantifying using UV–vis techniques.

In series [8] the target is bovine serum albumin (BSA) (Bos taurus, UniProt P02769). Put plainly: Interaction with BSA (MALDI-TOF MS). The series is classed as binding. As to conditions: BSA 30 μM, complex 1 mM, 48 h at 37 °C. The protocol:
Bovine serum albumin (BSA, 30 μM in 50 mM NH4HCO3) was incubated with the selected complexes (3a or 3b, 1 mM) at 37 °C for 48 h. Each complex was preliminarily dissolved in 50 μL of methanol. Following the incubation, an aliquot of the protein was adsorbed by repeated aspiration and release (20 times, 10-μL volume) into a ZipTip-C4 pipet tip (Merck, Darmstadt, Germany) that had been pre-equilibrated in 0.1% trifluoroacetic acid (TFA), washed by the equilibrating solution, and eluted into 10 μL of 70% acetonitrile containing 0.1% TFA. The eluate was subsequently subjected to evaporation using a vacuum centrifuge, and the residue was dissolved in 3 μL of 0.1% TFA. A 1 μL aliquot of this solution was deposited on an MSP Big Anchor 96 target plate (Bruker Daltonik, Bremen, Germany), onto which 1 μL of the matrix solution (sinapinic acid, 12 mg/mL in 0.1% TFA and 50% acetonitrile) was immediately superimposed. The sample was then allowed to dry. Mass spectra were acquired using a Microflex LRF20 MALDI-TOF mass spectrometer operated in a linear positive ion mode and controlled using flexControl 3.4 software from Bruker Daltonik). Protein Standard II, from Bruker Daltonik, was used for external calibration. All spectra were subjected to processing by using flexAnalysis 3.4 software from Bruker Daltonik.

The mark [9] stands for this setting: MTT, incubation 24 h, mean ± SD (Table 5), read-out: IC50 A2780.
[10] abbreviates: time-course experiment (Table 6), 24 h, mean ± SD, read-out: IC50 A2780, incubation time 24 h.
Where [11] appears, read: time-course experiment (Table 6), 48 h, mean ± SD, read-out: IC50 A2780, incubation time 48 h.
Setting [12] is: time-course experiment (Table 6), 72 h, mean ± SD, read-out: IC50 A2780, incubation time 72 h.

Sequence of bovine serum albumin (BSA) (P02769 25-607): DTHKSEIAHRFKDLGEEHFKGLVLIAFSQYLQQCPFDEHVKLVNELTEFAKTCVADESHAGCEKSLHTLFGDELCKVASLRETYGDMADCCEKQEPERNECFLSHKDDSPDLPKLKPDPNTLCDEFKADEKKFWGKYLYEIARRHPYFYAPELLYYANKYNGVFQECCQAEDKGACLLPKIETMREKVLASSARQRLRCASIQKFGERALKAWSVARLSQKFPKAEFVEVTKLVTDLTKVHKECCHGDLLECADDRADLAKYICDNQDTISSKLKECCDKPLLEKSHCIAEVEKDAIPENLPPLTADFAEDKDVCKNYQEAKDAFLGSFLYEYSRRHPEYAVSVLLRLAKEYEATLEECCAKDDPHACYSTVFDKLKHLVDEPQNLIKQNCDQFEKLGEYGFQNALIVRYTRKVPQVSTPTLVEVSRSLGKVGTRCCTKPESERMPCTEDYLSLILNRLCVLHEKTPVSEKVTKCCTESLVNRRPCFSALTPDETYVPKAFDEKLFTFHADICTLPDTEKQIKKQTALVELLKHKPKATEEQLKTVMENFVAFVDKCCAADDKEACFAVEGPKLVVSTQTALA

For `CC12CCC3c4ccc(O)cc4CCC3C1CCC2=C=[CH][Ru]1(=[C]=O)([CH]2C=CC=C2)[C](=O)[Ru+]1(=[C]=O)[CH]1C=CC=C1.F[B-](F)(F)F` (mixture of isomers) [3b, [Ru2Cp2(CO)3{μ–η^1:η^2-CH=C=(estradiolylidene)}]BF4], the IC50 (usually the concentration that inhibits the measured activity by half) was found to be 4.6 ± 1.3 µM in series [1]; 16.1 ± 1.3 µM in series [3]; 3.4 ± 0.6 µM in series [4] (setting [9]); 4 ± 0.7 µM in series [4] (setting [10]); 3 ± 0.3 µM in series [4] (setting [11]); 2.8 ± 0.2 µM in series [4] (setting [12]). In series [5], this molecule displayed an IC50 of 19.8 ± 2.3 µM. Besides, the “residual complex % in DMEM/CH3OH” value is given as 88% in series [2] (2 h) and 42% in series [2] (18 h). In series [6], the “autophagy level (in words)” value was “only moderately”. The “Log Pow” value in series [7] is on record as 1.24 ± 0.16. In series [8], the “mass variation of adduct with respect to BSA” value came to 483 Da.

As for `F[B-](F)(F)F.O=[C]=[Ru+]1([CH]2C=CC=C2)[C](=O)[Ru]1(=[C]=O)([CH]=C=C1CCCC1)[CH]1C=CC=C1` (stereo not drawn) [3a, [Ru2Cp2(CO)3{μ–η^1:η^2-CH=C=(cyclopentylidene)}]BF4], the IC50 in series [1] came to 6.4 ± 1.9 µM; in series [3], 25.3 ± 1.9 µM; in series [4] (setting [9]), 4.2 ± 0.9 µM; in series [4] (setting [10]), 3.8 ± 0.7 µM; in series [4] (setting [11]), 3.2 ± 0.2 µM; in series [4] (setting [12]), 3.1 ± 0.2 µM. In series [5], the IC50 came to 28.4 ± 3.9 µM. In addition, the figures for the “residual complex % in DMEM/CH3OH” value in series [2] (2 h) and in series [2] (18 h) were 94% and 12%, respectively. In addition, in series [6], the “autophagy level (in words)” value is “not appreciable”. In series [7], the “Log Pow” value is given as “–0.54 ± 0.02”. The “mass variation of adduct with respect to BSA” value in series [8] is on record as 3434 Da.
